Results as given in patent US6780397B2, “Biomolecule conjugation strategy using novel water-soluble phosphine-based chelating agents” (Curators of the University of Missouri, priority 1998, dated 2004).

Test: Stability of —PH2 compounds under storage and reaction conditions
Type: physicochemical
Excerpt: As a result of working with the Br(CH2)3 PH2 intermediate, it was recognized that the intermediate was unexpectedly stable under a variety of storage and reaction conditions.
Furthermore, the reactivity of the —PH2 groups in these compounds toward molecules containing a wide spectrum of functional groups (including carboxylic acids, amines, thiols, and proteins) was remarkably low or non-measurable.

stability to reaction conditions of solid phase peptide synthesis (HBTU, piperidine, solutions in DMF, trifluoroacetic acid wash)	oxidation of —PH2 groups (during SPPS and analysis)	stability profile (wider range of chemical conditions than used with the Br(CH2)3PH2 intermediate)	SMILES	stability under storage and reaction conditions (variety of solvents, wide pH range and temperature range)
stable	resistant to oxidation	much improved stability profile	O=C(O)CCCCC(CCSCCCP)SCCCP (stereo not shown) [(PH2)2S2—COOH, H2P(CH2)3SCH2CH2CH((CH2)4COOH)S(CH2)3PH2]	
			PCCCBr.[HH] [Br(CH2)3 PH2, 3-bromo-propyl phosphine hydride]	reasonably stable
